Source: patent US11311513B2, “Methods, agents, and compositions for the treatment of acute myeloid leukemia” (UNIVERSITY OF CINCINNATI, priority 2017, dated 2022)

Columns and labels:
NB4 cells = assay: MTS cell viability, TET1-low control cell line; assay type: cell-based; conditions: up to 500 nM, 48 hrs
Description: FIG. 1. […] Cell viability was analyzed by MTS 48 hours post-treatment. […] TET1 expression levels were detected by qPCR 48 hrs post-treatment. […] TET1 expression levels (e) and cell viability (f) were detected 24 hrs post-treatment. *, P<0.05, two-tailed t-test. MM6, MONOMAC-6. Error bar indicates SD of triplicate experiments.
MONOMAC-6, THP-1, KOCL-48, KASUMI-1, ML-2 and NB4 cells were purchased from ATCC (Manassas, Va.), and cultured as described previously (Jiang, X., et al. Blockade of miR-150 Maturation by MLL-Fusion/MYC/LIN-28 Is Required for MLL-Associated Leukemia. Cancer Cell 22, 524-535 (2012); Li, Z., et al. miR-196b directly targets both HOXA9/MEIS1 oncogenes and FAS tumour suppressor in MLL-rearranged leukaemia. (Li, Z., et al., miR-196b directly targets both HOXA9/MEISV oncogenes and FAS tumour suppressor in MLL-rearranged leukaemia, Nat Commun 2:688 (2012)). All cell lines were tested for mycoplasma contamination yearly using a PCR Mycoplasma Test Kit (PromoKine) and were proven to be mycoplasma negative. All cell lines were authenticated through STR profiling yearly. […]

[1] = system: 5hmC peak enrichment in the whole genome; assay: Genome-wide 5hmC-seq in ML-2 AML cells; assay type: cell-based, human
Description: FIG. 12. […] 5hmC peak counts at different IDR cutoffs were shown. (b) Read density across 5hmC enriched regions. A unified catalog of 5hmC enriched regions was generated. Shown are heatmaps rank-ordered by reads per kilobase of exon model per million mapped reads (RPKM) of 5hmC-Seal samples minus that of the input samples. (c) Read density across all RefSeq genes. Shown are heatmaps of 5hmC read density changes across all RefSeq gene loci and 5 kb flanking regions (minus input values).
100 ng genomic DNA extracted from ML-2 cell were fragmented in 50 jiL Tagmentation buffer at 55° C. Fragmented DNA was purified by Zymo DNA clean&concentrator Kit (Zymo Research, Tustin, Calif.). Then, the selective 5hmC chemical labeling was performed in 25 jiL glucosylation buffer (50 mM HEPES buffer pH 8.0, 25 mM MgCl2) containing above fragmented DNA, 100 μM N3-UDP-Glc, 1 μM β-GT, and incubated at 37° C. for 2 hr. […] The libraries were quantified by a Qubit fluorometer (Life Technologies) and sequenced on an Illumina HiSEQ4000 sequencer with paired-end 50-bp reads.
The gene network was analyzed with Ingenuity Pathway Analysis (Qiagen). […] For 5hmC sequencing analysis, illumina sequencing reads were mapped to UCSC hg19 human reference genome using bowtie program. Only uniquely mapped reads were retained for the following data analysis. […]

[2] = system: normal hematopoietic stem/progenitor cells (c-Kit+ BM cells); assay: MTS and apoptosis assays in normal HSPCs; assay type: cell-based, mice; conditions: 50 nM; 3 days
Description: FIG. 14. […] BM cells of leukemic mice with MLL-AF9 fusion (MA9-AML) or FLT3-ITD/NPM1^mut, and c-Kit^+ HSPCs from a pool of 6 healthy donor mice were cultured in liquid medium. […] MTS (a), apoptosis assays (b) and qPCR (c) were conducted 3 days after cell seeding or drug treatments. Error bar indicates SD of triplicate experiments.
These experiments were conducted as described previously (Jiang, X., et al., Blockade of miR-150 Maturation by MLL-Fusion/MYC/LIN-28 Is Required for MLL-Associated Leukemia, Cancer Cell 22:524-35 (2012); Li, Z., et al., miR-196b directly targets both HOXA9/MEIS1 oncogenes and FAS tumour suppressor in MLL-rearranged leukaemia, Nat Commun 2:688 (2012)) with ApoLive-Glo Multiplex Assay Kit, or CellTiter 96 AQueous Non-Radioactive Cell Proliferation Assay Kit (Promega, Madison, Wis.).

[3] = Acute and long-term toxicity profiling in healthy mice; assay type: in vivo, C57BL/6 mice; conditions: for acute (24 hrs) or long-term (200 days) toxicity: 2.5 mg/kg i.p. once per day 10 days, body, spleen, liver weights, WBC, PB and BM lineages; for WBC: 2.5 mg/kg i.p. 10 days, normal range 1.8-10.7; for BA / EO: normal range 0.0-0.2; for MO: normal range 0.0-0.4; for NE: normal range 0.1-2.4; for LY: normal range 0.9-9.3; for RBC: normal range 6.36-9.42; for PLT: normal range 592-2972
Description: FIG. 15. […] 24 hrs after the last administration, body weights (a), weights of spleens (b), livers (c), total PB WBC counts (d), BM Mac1^+Gr1^+ (e), Mac1^+Gr1^− (f), Mac1^−Gr1^+ (g), and c-Kit^+ (h) populations were analyzed.
FIG. 16. […] 200 days after the last administration, body weights (a), weights of spleens (b), livers (c), total PB WBC counts (d), BM Mac1^+Gr1^+ (e), Mac1^+Gr1^− (f), Mac1^−Gr1^+ (g), and c-Kit^+ (h) populations were analyzed.

THP-1 and KASUMI-1 cells = assay: Combination with daunorubicin in AML cells; assay type: cell-based; conditions: 25 nM compound and 100 nM DNR; 48 hours
[4] = acute, 24 hrs post last administration
[5] = long-term, 200 days post last administration

SMILES	inhibition of viability of NB4 cells (NB4 cells)	reduction of 5hmC peak enrichment in the whole genome [1]	toxicity on normal HSPCs (viability, apoptosis) [2]	acute (24 hrs) or long-term (200 days) toxicity [3]	WBC [3, 4] [K/μl]	BA [3, 4] [K/μl]	MO [3, 4] [K/μl]	NE [3, 4] [K/μl]	LY [3, 4] [K/μl]	RBC [3, 4] [M/μl]	PLT [3, 4] [K/μl]	WBC [3, 5] [K/μl]	BA [3, 5] [K/μl]	EO [3, 5] [K/μl]	MO [3, 5] [K/μl]	NE [3, 5] [K/μl]	LY [3, 5] [K/μl]	RBC [3, 5] [M/μl]	PLT [3, 5] [K/μl]	combined effect with DNR on inhibiting viability (THP-1 and KASUMI-1 cells)	other results
COc1cc(C(c2cc3c(cc2O)OCO3)N2CCCC2)cc(OC)c1OC (centres unmarked) [NSC-370284, 6-(1-Pyrrolidinyl(3,4,5-trimethoxyphenyl)methyl)-1,3-benzodioxol-5-ol]	no significant inhibition	around 75%	no obvious toxicity	no evidence of either acute or long-term toxicity	8.35 ± 2.34	0.05 ± 0.05	0.22 ± 0.14	1.67 ± 0.21	6.74 ± 2.55	8.55 ± 3.34	460.21 ± 42.42	10.34 ± 2.19	0.03 ± 0.02	0.11 ± 0.01	0.31 ± 0.03	2.26 ± 0.54	7.68 ± 1.55	7.38 ± 1.7	929.62 ± 154.61	works synergistically	–
CC(C)(C)c1cc(C(c2cc3c(cc2O)OCO3)N2CCOCC2)cc(C(C)(C)C)c1O (centres unmarked) [UC-514321, 6-{[4-Hydroxy-3,5-bis(2-methyl-2-propanyl)phenyl](4-morpholinyl)methyl}-1,3-benzodioxol-5-ol]	no inhibitory effect	around 75%	no obvious toxicity	no evidence of either acute or long-term toxicity	8.64 ± 3.68	0.07 ± 0.05	0.27 ± 0.1	1.94 ± 0.56	6.54 ± 2.7	9.54 ± 0.74	559.43 ± 116.9	11.89 ± 1.64	0.07 ± 0.04	0.1 ± 0.01	0.25 ± 0.05	2.11 ± 0.44	8.55 ± 1.18	7.07 ± 0.42	681.56 ± 402.64	works synergistically	EO [3, 4]: 0.14 ± 0.12 K/μl
